Tests used:
[1] = tested on: cat cerebrocortical tissue slices; assay: In vitro cat cerebrocortical tissue slice assay (HCO3^- -stimulated tissue swelling); type: cell-based; conditions: Felis catus, read-out: percentage inhibition of tissue swelling (% Inhib.)
Description: Using the in vitro cat cerebrocortical tissue slice assay, described in Example 1, compounds of the present invention can be tested for activity. This test provides the principal in vitro evaluation and consists of a determination of concentration vs. response curve. The addition of HCO3^- to isotonic, K^+ -rich saline-glucose incubation media is known to specifically stimulate the transport of Cl^- coupled with Na^+ and an osmotic equivalent of water in incubating slices of mammalian cerebral cortex. […] After addition of drug to the incubation media, detailed drug concentration-response curves are then obtained. The data are expressed as percent HCO3^- -stimulated swelling vs. drug concentration, from which the concentration of drug providing 50% inhibition of HCO3^- -stimulated swelling (I50 in molarity) is interpolated.
Adult cats of 2-3 kg body weight are employed in tissue slice studies. Prior to sacrifice, the animals are anesthetized with ketamine hydrochloride (Ketaset), 10 mg/kg intramuscularly. Eight (three control, five experimental) pial surface cerebrocortical tissue slices (0.5-mm thick; approximately 150 mg initial fresh weight) are cut successively with a calibrated Stadie-Riggs fresh tissue microtome without moistening and weighed successively on a torsion balance. During the slice preparation all operations except weighing are confined to a humid chamber. Each slice is rapidly placed in an individual Warburg flask containing 2 ml of incubation medium at room temperature. The basic composition of the incubation media, in millimoles per liter, is as follows: glucose, 10; CaCl2, 1.3; MgSO4, 1.2; KHSO4, 1.2; Hepes (N-2-hydroxyethylpiperazine-N'-2-ethanesulfonic acid, titrated with NaOH to pH 7.4), 20. Except when adding HCO3^-, the osmolarity of the media is maintained isosmotic (approximately 285 mOsm/L) by reciprocal changes of Na^+ or K^+ to achieve a concentration of K^+ of 27 mM. The basic medium was saturated with oxygen by bubbling pure oxygen through the solution for 30 minutes before use. […]
Following the 60-minute incubation period, tissue slices are separated from incubation medium by filtration, reweighed, and homogenized in 1N HClO4 (10% w/v) for electrolyte analysis. […] Control slice swelling is expressed as microliters per gram initial preswelling fresh weight. The effectiveness of an inhibitor at a given concentration is measured by the amount of HCO3^- -stimulated swelling that occurred in its presence, computed as a percent of the maximum possible. Tissue and media Na^+ and K^+ levels are determined by emission flame photometry with Li^+ internal standard; Cl^- levels are determined by amperometric titration. Tissue viability during incubation is monitored by manometry.

[2] = tested on: animals receiving experimental in vivo head injury; conditions: cited from earlier work
astroglial edema = conditions: cited from earlier work
[3] = tested on: clinical cases of head injury; conditions: cited from earlier work

O=C(O)COc1cc2c(c(Cl)c1Cl)C1=CC(=O)C3CCCC1(C2)C3 (racemic) [Example 2, [(5,6-Dichloro-3-oxo-2,9a-propano-2,3,9,9a-tetrahydro-1H-fluoren-7-yl)oxy]acetic acid]
inhibition at 1 µM ([1]; conc. 10^-6 M): 81% | inhibition at 0.1 µM ([1]; conc. 10^-7 M): 54% | inhibition at 0.01 µM ([1]; conc. 10^-8 M): 29% | inhibition at 0.001 µM ([1]; conc. 10^-9 M): 10%

C=C(CC)C(=O)c1ccc(OCC(=O)O)c(Cl)c1Cl [ethacrynic acid]
activity in in vivo assays [2]: exhibited activity | activity in in vitro assays (astroglial edema): exhibited activity | reducing mortality in clinical cases of head injury [3]: effective in reducing mortality

Source: patent US4731470A, “[(5,6-dichloro-3-oxo-2,9a-alkano-2,3,9,9a-tetrahydro-1H-fluoren-7-yl)oxy] alkanoic acids and alkanimidamides” (Merck & Co., Inc., priority 1986, dated 1988)
